How the values were obtained:
LCE [1] = experiment: Influence of enzyme inhibitors or activators on LCE activity, kidney membrane fraction; type: biochemical, Balb/c; details: LCE Membranfraktion Niere (Balb/c)
Protocol: (§1) Das Pipettierschema ist in der folgenden Tabelle angegeben. Tabelle
(§2) Zur Untersuchung der enzymatischen Spaltung in Abhängigkeit von der Substratkonzentration wurde eine Substratstammlösung von 0.98 nmol [^14C]-AZT-DMDOPE und 0.7 nmol AZT-DMDOPE/80 µl Aqua bidest. im LCE-Assay angesetzt. Die verschiedenen Substratkonzentrationen im LCE-Assay wurden durch kontinuierliche Verdopplung bzw. Halbierung des Volumens an Substratlösung eingestellt. Die Ansätze wurden in Glasröhrchen (5 ml) vorgelegt und durch Zugabe der Substratlösung gestartet. Die Inkubation wurde bei 37 °C im Wasserbad unter leichtem Schütteln durchgeführt.
(§3) Die Reaktionsansätze des LCE-Assays wurden nach entsprechender Inkubationszeit dem Wasserbad entnommen, und die Reaktion durch Zugabe von 750 µl 2-Propanol gestoppt. Nach gründlicher Durchmischung wurden die Ansätze anschließend mit 700 µl auf Raumtemperatur erwärmtem n-Heptan versetzt. Die Ansätze wurden erneut für 30 sec gut gemischt und zur Beschleunigung der Phasentrennung in der Minifuge T bei 3200 rpm für 15 min bei Raumtemperatur zentrifugiert. Anschließend wurden 500 µl der oberen Phase (n-Heptan) entnommen und in neue Glasröhrchen (5 ml) mit 10 mg Kieselgel 60 H und 200 µl n-Heptan überführt. Die Ansätze wurden für 30 sec gut durchmischt und zur Sedimentation des Kieselgels für 10 min unter oben genannten Bedingungen zentrifugiert. Vom Überstand wurden anschließend 500 µl entnommen und mit 3 ml Szintillationsflüssigkeit versetzt. Die Messung der Radioaktivität erfolgte für 4 min im Flüssigkeits-Szintillations-Analysator. Zur Bestimmung des Absolutwertes an Radioaktivität wurden 200 µl der Substratlösung mit 3 ml Szintillationsflüssigkeit versetzt und unter gleichen Bedingungen im Flüssigkeits-Szintillations-Analysator gemessen.

LCE [2] = experiment: Influence of enzyme inhibitors or activators on LCE activity, CEM-SS membrane fraction; type: biochemical; details: LCE Membranfraktion CEM-SS
Protocol: as §1, §2
as §3, with “Vom Überstand wurden anschließend 500 µl entnommen und mit 3 ml Szintillationsflüssigkeit versetzt. Die Messung der Radioaktivität erfolgte für 4 min im Flüssigkeits-Szintillations-Analysator. Zur Bestimmung des Absolutwertes an Radioaktivität wurden 200 µl der Substratlösung mit 3 ml Szintillationsflüssigkeit versetzt und unter gleichen Bedingungen im Flüssigkeits-Szintillations-Analysator gemessen.” left out

LCE [3] = experiment: Effect of phospholipase C/D inhibitors and activators on LCE as stated in the description; type: biochemical
Phospholipase C = details: cited from earlier work

Compound: S=C(S)OC1CC2CC1C1CCCC21 (stereo not shown) [D 609, Tricyclodecan-9-yl-xanthogenat]
- Einfluß auf LCE-Aktivität (LCE [1]): Stimulation Stimulation
- Einfluß auf LCE-Aktivität (LCE [2]): Stimulation Stimulation
- Einfluß auf LCE (Hemmung/Aktivierung) (LCE [3]): aktiviert
- Einfluß auf Phospholipase C (Phospholipase C): inhibiert

— patent EP0791056B1, “LIPID-CLEAVAGE ENZYME COMPLEX” (priority 1994, dated 1996)
